By mass density is commonly meant the mass of a sample divided by its volume.

Data on seven compounds can be found in the NIST ThermoML archive (doi:10.1021/je7007582).

Numbers after ± are expanded uncertainties.

The conditions of the data set: Liquid; for mass density: 298.15 K, 101.33 kPa, Pycnometric method; for Normal boiling temperature: Ebulliometric method (Recirculating still).

On to `CC(C)CO` [2-methyl-1-propanol], for which the mass density is listed as 797.8 ± 0.7 kg/m3 and the Normal boiling temperature is 107.77 ± 0.05 °C.

For the compound `CCCCO` [butan-1-ol], the mass density is listed as 805.7 ± 0.7 kg/m3.

As to `CCC(C)O` (stereo not drawn) [butan-2-ol], the mass density was found to be 802.3 ± 0.7 kg/m3 and the Normal boiling temperature came out at 99.48 ± 0.05 °C.

For `CCO` [ethanol], the mass density is 785.2 ± 0.7 kg/m3 and the Normal boiling temperature amounted to 78.31 ± 0.05 °C.

Turning to `CO` [methanol], the mass density stood at 786.6 ± 0.7 kg/m3 and the Normal boiling temperature is 64.49 ± 0.05 °C.

For `CCCO` [propan-1-ol], the mass density stood at 799.6 ± 0.7 kg/m3 and the Normal boiling temperature was determined as 97.06 ± 0.05 °C.

With `CC(C)O` [propan-2-ol], the mass density was 780.8 ± 0.7 kg/m3 and the Normal boiling temperature was 82.2 ± 0.05 °C.
